# Measured values published in ChEMBL document CHEMBL3885881, “DrugMatrix”.
# Species: Rattus norvegicus
# Experiment: DrugMatrix - Regimen: Daily Repeat
# Assay type: toxicity, organism-based, Sprague-Dawley
# Design: regimen Daily Repeat, gender Male, age 6-8 weeks
# Settings: in vivo, po, route oral GAVAGE, vehicle 100 % WATER; for ABSOLUTE BASOPHIL / ABSOLUTE EOSINOPHIL / ABSOLUTE LYMPHOCYTE / ABSOLUTE MONOCYTE / ABSOLUTE SEGMENTED NEUTROPHIL / BASOPHIL / EOSINOPHIL / ERYTHROCYTE COUNT / HEMATOCRIT / HEMOGLOBIN / LEUKOCYTE COUNT / LYMPHOCYTE / MEAN CORPUSCULAR HEMOGLOBIN / MEAN CORPUSCULAR HEMOGLOBIN CONCENTRATION / MEAN CORPUSCULAR VOLUME / MONOCYTE / NEUTROPHIL / NUCLEATED RED BLOOD CELLS / PLATELET COUNT: tissue Blood; for ALANINE AMINOTRANSFERASE / ALBUMIN / ALKALINE PHOSPHATASE / ASPARTATE AMINOTRANSFERASE / BLOOD UREA NITROGEN / CARBON DIOXIDE / CHLORIDE / CHOLESTEROL / CREATINE PHOSPHOKINASE / CREATININE / GLUCOSE / LACTATE DEHYDROGENASE / LIPASE / PHOSPHORUS / POTASSIUM / SODIUM / TOTAL BILIRUBIN / TOTAL PROTEIN / URIC ACID: tissue Plasma
# [1] = 0 mg/kg, 72 h, dose level Control, time 3 day
# [2] = 0 mg/kg, 120 h, dose level Control, time 5 day
# [3] = 6 mg/kg, 72 h, dose level Low, time 3 day
smiles,measurement,setting,value
CN1CCN(C(=O)OC2c3nccnc3C(=O)N2c2ccc(Cl)cn2)CC1 (centres undefined) [ZOPICLONE],ABSOLUTE BASOPHIL,[1],0 CELLS/uL
same,ABSOLUTE EOSINOPHIL,[1],86.33 CELLS/uL
same,ABSOLUTE LYMPHOCYTE,[1],12090.17 CELLS/uL
same,ABSOLUTE MONOCYTE,[1],166.67 CELLS/uL
same,ABSOLUTE SEGMENTED NEUTROPHIL,[1],1090.17 CELLS/uL
same,BASOPHIL,[1],0%
same,EOSINOPHIL,[1],0.67%
same,ERYTHROCYTE COUNT,[1],5.57 x10E6/uL
same,HEMATOCRIT,[1],35.33%
same,HEMOGLOBIN,[1],13.83 G/DL
same,LEUKOCYTE COUNT,[1],13.43 x10E3/uL
same,LYMPHOCYTE,[1],89.83%
same,MEAN CORPUSCULAR HEMOGLOBIN,[1],24.88 pg
same,MEAN CORPUSCULAR HEMOGLOBIN CONCENTRATION,[1],39.15 G/DL
same,MEAN CORPUSCULAR VOLUME,[1],63.52 fL
same,MONOCYTE,[1],1.17%
same,NEUTROPHIL,[1],8.33%
same,NUCLEATED RED BLOOD CELLS,[1],0 /100WBC
same,PLATELET COUNT,[1],1181.33 x10E3/uL
same,ALANINE AMINOTRANSFERASE,[1],48.33 u/L
same,ALBUMIN,[1],4.1 G/DL
same,ALKALINE PHOSPHATASE,[1],395 u/L
same,ASPARTATE AMINOTRANSFERASE,[1],81.83 u/L
same,BLOOD UREA NITROGEN,[1],15.83 mg/dL
same,CARBON DIOXIDE,[1],24.17 mmol/L
same,CHLORIDE,[1],103.83 MEQ/L
same,CHOLESTEROL,[1],63.67 mg/dL
same,CREATINE PHOSPHOKINASE,[1],372.83 u/L
same,CREATININE,[1],0.18 mg/dL
same,GLUCOSE,[1],173.83 mg/dL
same,LACTATE DEHYDROGENASE,[1],188.33 u/L
same,LIPASE,[1],9.5 u/L
same,PHOSPHORUS,[1],11.95 mg/dL
same,POTASSIUM,[1],5.99 MEQ/L
same,SODIUM,[1],144.43 MEQ/L
same,TOTAL BILIRUBIN,[1],0.15 mg/dL
same,TOTAL PROTEIN,[1],5.95 G/DL
same,URIC ACID,[1],1.82 mg/dL
same,ABSOLUTE BASOPHIL,[2],0 CELLS/uL
same,ABSOLUTE EOSINOPHIL,[2],26.67 CELLS/uL
same,ABSOLUTE LYMPHOCYTE,[2],7583.83 CELLS/uL
same,ABSOLUTE MONOCYTE,[2],131.33 CELLS/uL
same,ABSOLUTE SEGMENTED NEUTROPHIL,[2],674.83 CELLS/uL
same,BASOPHIL,[2],0%
same,EOSINOPHIL,[2],0.33%
same,ERYTHROCYTE COUNT,[2],5.78 x10E6/uL
same,HEMATOCRIT,[2],36.48%
same,HEMOGLOBIN,[2],14.03 G/DL
same,LEUKOCYTE COUNT,[2],8.42 x10E3/uL
same,LYMPHOCYTE,[2],89.83%
same,MEAN CORPUSCULAR HEMOGLOBIN,[2],24.3 pg
same,MEAN CORPUSCULAR HEMOGLOBIN CONCENTRATION,[2],38.52 G/DL
same,MEAN CORPUSCULAR VOLUME,[2],63.15 fL
same,MONOCYTE,[2],1.67%
same,NEUTROPHIL,[2],8.17%
same,NUCLEATED RED BLOOD CELLS,[2],0 /100WBC
same,PLATELET COUNT,[2],1186.67 x10E3/uL
same,ALANINE AMINOTRANSFERASE,[2],50.17 u/L
same,ALBUMIN,[2],4.07 G/DL
same,ALKALINE PHOSPHATASE,[2],367.5 u/L
same,ASPARTATE AMINOTRANSFERASE,[2],81.67 u/L
same,BLOOD UREA NITROGEN,[2],16.17 mg/dL
same,CARBON DIOXIDE,[2],32.33 mmol/L
same,CHLORIDE,[2],101.5 MEQ/L
same,CHOLESTEROL,[2],65.33 mg/dL
same,CREATINE PHOSPHOKINASE,[2],255.33 u/L
same,CREATININE,[2],0.17 mg/dL
same,GLUCOSE,[2],139.33 mg/dL
same,LACTATE DEHYDROGENASE,[2],95 u/L
same,LIPASE,[2],10.5 u/L
same,PHOSPHORUS,[2],10.38 mg/dL
same,POTASSIUM,[2],6.11 MEQ/L
same,SODIUM,[2],145.55 MEQ/L
same,TOTAL BILIRUBIN,[2],0.17 mg/dL
same,TOTAL PROTEIN,[2],5.98 G/DL
same,URIC ACID,[2],0.93 mg/dL
same,ABSOLUTE BASOPHIL,[3],0 CELLS/uL
same,ABSOLUTE EOSINOPHIL,[3],0 CELLS/uL
same,ABSOLUTE LYMPHOCYTE,[3],14318.33 CELLS/uL
same,ABSOLUTE MONOCYTE,[3],218 CELLS/uL
same,ABSOLUTE SEGMENTED NEUTROPHIL,[3],1497 CELLS/uL
same,BASOPHIL,[3],0%
same,EOSINOPHIL,[3],0%
same,ERYTHROCYTE COUNT,[3],5.61 x10E6/uL
same,HEMATOCRIT,[3],35.47%
same,HEMOGLOBIN,[3],13.67 G/DL
same,LEUKOCYTE COUNT,[3],16.03 x10E3/uL
same,LYMPHOCYTE,[3],89.33%
same,MEAN CORPUSCULAR HEMOGLOBIN,[3],24.37 pg
same,MEAN CORPUSCULAR HEMOGLOBIN CONCENTRATION,[3],38.53 G/DL
same,MEAN CORPUSCULAR VOLUME,[3],63.23 fL
same,MONOCYTE,[3],1.33%
same,NEUTROPHIL,[3],9.33%
same,NUCLEATED RED BLOOD CELLS,[3],0 /100WBC
same,PLATELET COUNT,[3],1106.33 x10E3/uL
same,ALANINE AMINOTRANSFERASE,[3],43.67 u/L
same,ALBUMIN,[3],3.9 G/DL
same,ALKALINE PHOSPHATASE,[3],402 u/L
same,ASPARTATE AMINOTRANSFERASE,[3],70.33 u/L
same,BLOOD UREA NITROGEN,[3],14.33 mg/dL
same,CARBON DIOXIDE,[3],25.33 mmol/L
same,CHLORIDE,[3],102 MEQ/L
same,CHOLESTEROL,[3],72.33 mg/dL
same,CREATINE PHOSPHOKINASE,[3],454.67 u/L
same,CREATININE,[3],0.15 mg/dL
same,GLUCOSE,[3],170.33 mg/dL
same,LACTATE DEHYDROGENASE,[3],139 u/L
same,LIPASE,[3],9 u/L
same,PHOSPHORUS,[3],12.8 mg/dL
same,POTASSIUM,[3],6.03 MEQ/L
same,SODIUM,[3],142.73 MEQ/L
same,TOTAL BILIRUBIN,[3],0.2 mg/dL
same,TOTAL PROTEIN,[3],5.63 G/DL
same,URIC ACID,[3],1.97 mg/dL
